Measured values published in patent publication US20170129916A1, “NOVEL BETULINIC PROLINE IMIDAZOLE DERIVATIVES AS HIV INHIBITORS” (HETERO RESEARCH FOUNDATION, priority 2014, published 2017).

Assays:
[1] = system: HIV-1 strains, for e.g., 92HT599; assay: Antiviral activity: p24 estimation in MT-2 cells infected with HIV-1; assay type: cell-based; conditions: Human immunodeficiency virus 1, MT2, MT-2 cells infected with HIV-1, p24, ~96 hours; for IC50: read-out: Antiviral activity IC50 (nM) Efficacy IC50
Description: MT-2 cells were infected with required number of TCID50's of HIV-1 strains, for e.g., 92HT599. The infected cells were plated at the concentration of 30, 000 cells per well in a 96 well plate. Test compound was added to the 96 well plate with the final concentration of DMSO (vehicle—not more than 1%). The plates are then incubated in a CO2 incubator for ˜96 hours (˜4 days) for viral infection. At the end of incubation period an aliquot from each well was taken for p24 estimation. The quantitation of p24 is an estimated index for antiviral activity of the compound. Percent inhibition was calculated with reference to control values (vehicle controls).
p-24 estimation was carried out using Advance biosciences kit as per the procedure detailed by supplier.

[2] = Single dose oral pharmacokinetic study; assay type: in vivo; conditions: mouse, mice, 30 mg/kg, plasma; for AUC(0-t): read-out: Mice oral PK @30 mg/kg AUC 0-t; for Cmax: read-out: Mice oral PK @30 mg/kg Cmax
Description: The test item was administered through oral route to animals (rat/mice) at 30 mg/kg dose in a suitable vehicle at 10 ml/kg dose volume. Blood samples (˜50 uL at each time point) were collected from retro-orbital plexus using K3 EDTA as anticoagulant in eppend; orf tubes at defined time intervals under light ether anesthesia. The samples were centrifuged at 3500×g to separate plasma and stored at −80° C. until analysis.
Sample analysis: Test samples were analyzed using LC-MS-MS after developing fit-for-purpose method for each of test compound.

C=C(C)[C@@H]1CC[C@]2(C(=O)N3CCC[C@H]3c3ncc(-c4ccccn4)[nH]3)CC[C@]3(C)[C@H](CC[C@@H]4[C@@]5(C)CC[C@H](OC(=O)[C@H]6C[C@@H](C(=O)O)C6(C)C)C(C)(C)[C@@H]5CC[C@]43C)[C@@H]12 [Compound 1, (1R,3S)-2,2-dimethyl-3-((((1R,3aS,5aR,5bR,7aR,9S,11aR,11bR,13aR,13bR)-5a,5b,8,8,11a-pentamethyl-1-(prop-1-en-2-yl)-3a-((S)-2-(5-(pyridin-2-yl)-1H-imidazol-2-yl)pyrrolidine-1-carbonyl)icosahydro-1H-cyclopenta[a]chrysen-9-yl)oxy)carbonyl)cyclobutane-1-carboxylic acid]
IC50 [1]: 8.06 nM | AUC(0-t) [2]: 177 µg·h/mL | Cmax [2]: 6290 ng/mL

C=C(C)[C@@H]1CC[C@]2(C(=O)N3CCC[C@H]3c3ncc(-c4cccc(F)c4)[nH]3)CC[C@]3(C)[C@H](CC[C@@H]4[C@@]5(C)CC[C@H](OC(=O)[C@H]6C[C@@H](C(=O)O)C6(C)C)C(C)(C)[C@@H]5CC[C@]43C)[C@@H]12 [Compound 4, (1R,3S)-3-((((1R,3aS,5aR,5bR,7aR,9S,11aR,11bR,13aR,13bR)-3a-((S)-2-(5-(3-fluorophenyl)-1H-imidazol-2-yl)pyrrolidine-1-carbonyl)-5a,5b,8,8,11a-pentamethyl-1-(prop-1-en-2-yl)icosahydro-1H-cyclopenta[a]chrysen-9-yl)oxy)carbonyl)-2,2-dimethylcyclobutane-1-carboxylic acid]
IC50 [1]: 1.67 nM | AUC(0-t) [2]: 398 µg·h/mL | Cmax [2]: 14800 ng/mL

C=C(C)[C@@H]1CC[C@]2(C(=O)N3C[C@H](OCCOC)C[C@H]3c3nc(-c4ccccc4)c[nH]3)CC[C@]3(C)[C@H](CC[C@@H]4[C@@]5(C)CC[C@H](OC(=O)[C@H]6C[C@@H](C(=O)O)C6(C)C)C(C)(C)[C@@H]5CC[C@]43C)[C@@H]12 [Compound 7, (1R,3S)-3-((((1R,3aS,5aR,5bR,7aR,9S,11aR,11b,13aR,13bR)-3a-((2S,4R)-4-(2-methoxyethoxy)-2-(4-phenyl-1H-imidazol-2-yl)pyrrolidine-1-carbonyl)-5a,5b,8,8,11a-pentamethyl-1-(prop-1-en-2-yl)icosahydro-1H-cyclopenta[a]chrysen-9-yl)oxy)carbonyl)-2,2-dimethylcyclobutane-1-carboxylic acid]
IC50 [1]: 5.5 nM | AUC(0-t) [2]: 342 µg·h/mL | Cmax [2]: 12800 ng/mL

C=C(C)[C@@H]1CC[C@]2(C(=O)N3C[C@H](OCCOC)C[C@H]3c3nc(-c4cccc(F)c4)c[nH]3)CC[C@]3(C)[C@H](CC[C@@H]4[C@@]5(C)CC[C@H](OC(=O)[C@H]6C[C@@H](C(=O)O)C6(C)C)C(C)(C)[C@@H]5CC[C@]43C)[C@@H]12 [Compound 8, (11R,3S)-3-((((1R,3aS,5aR,5bR,7aR,9S,11aR,11bR,13aR,13bR)-3a-((2S,4R)-2-(4-(3-fluorophenyl)-1H-imidazol-2-yl)-4-(2-methoxyethoxy)pyrrolidine-1-carbonyl)-5a,5b,8,8,11a-pentamethyl-1-(prop-1-en-2-yl)icosahydro-1H-cyclopenta[a]chrysen-9-yl)oxy)carbonyl)-2,2-dimethylcyclobutane-1-carboxylic acid]
IC50 [1]: 61.1 nM | AUC(0-t) [2]: 1240 µg·h/mL | Cmax [2]: 41300 ng/mL

C=C(C)[C@@H]1CC[C@]2(C(=O)N3C[C@H](OCCOC)C[C@H]3c3nc(-c4ccc(F)cc4)c[nH]3)CC[C@]3(C)[C@H](CC[C@@H]4[C@@]5(C)CC[C@H](OC(=O)[C@H]6C[C@@H](C(=O)O)C6(C)C)C(C)(C)[C@@H]5CC[C@]43C)[C@@H]12 [Compound 9, (1R,3S)-3-((((1R,3aS,5aR,5bR,7aR,9S,11aR,11bR,13aR,13bR)-3a-((2S,4R)-2-(4-(4-fluorophenyl)-1H-imidazol-2-yl)-4-(2-methoxyethoxy)pyrrolidine-1-carbonyl)-5a,5b,8,8,11a-pentamethyl-1-(prop-1-en-2-yl)icosahydro-1H-cyclopenta[a]chrysen-9-yl)oxy)carbonyl)-2,2-dimethylcyclobutane-1-carboxylic acid]
IC50 [1]: 5.52 nM

C=C(C)[C@@H]1CC[C@]2(C(=O)N3CCC[C@H]3c3nc(-c4ccccc4)c(C)[nH]3)CC[C@]3(C)[C@H](CC[C@@H]4[C@@]5(C)CC[C@H](OC(=O)[C@H]6C[C@@H](C(=O)O)C6(C)C)C(C)(C)[C@@H]5CC[C@]43C)[C@@H]12 [Compound 13, (1R,3S)-2,2-dimethyl-3-((((1R,3aS,5aR,5bR,7aR,9S,11aR,11bR,13aR,13bR)-5a,5b,8,8,11a-pentamethyl-3a-((S)-2-(5-methyl-4-phenyl-1H-imidazol-2-yl)pyrrolidine-1-carbonyl)-1-(prop-1-en-2-yl)icosahydro-1H-cyclopenta[a]chrysen-9-yl)oxy)carbonyl)cyclobutane-1-carboxylic acid]
IC50 [1]: 4.9 nM

C=C(C)[C@@H]1CC[C@]2(C(=O)N3CCC[C@H](c4ncc(-c5ccccc5)[nH]4)C3)CC[C@]3(C)[C@H](CC[C@@H]4[C@@]5(C)CC[C@H](OC(=O)[C@H]6C[C@@H](C(=O)O)C6(C)C)C(C)(C)[C@@H]5CC[C@]43C)[C@@H]12 [Compound 20, (1R,3S)-2,2-dimethyl-3-((((1R,3aS,5aR,5bR,7aR,9S,11aR,11bR,13aR,13bR)-5a,5b,8,8,11a-pentamethyl-3a-((S)-3-(5-phenyl-1H-imidazol-2-yl)piperidine-1-carbonyl)-1-(prop-1-en-2-yl)icosahydro-1H-cyclopenta[a]chrysen-9-yl)oxy)carbonyl)cyclobutane-1-carboxylic acid]
IC50 [1]: 58.4 nM

C=C(C)[C@@H]1CC[C@]2(C(=O)N3CCC[C@H]3c3ncc(-c4ccccc4)[nH]3)CC[C@]3(C)[C@H](CC[C@@H]4[C@@]5(C)CC[C@H](OC(=O)C6C(C(=O)O)C6(C)C)C(C)(C)[C@@H]5CC[C@]43C)[C@@H]12 (stereo partly drawn) [Compound 22, 2,2-di methyl-3-((((1R,3aS,5aR,5bR,7aR,9S,11aR,11bR,13aR,13bR)-5a,5b,8,8,11a-pentamethyl-3a-((S)-2-(5-phenyl-1H-imidazol-2-yl)pyrrolidine-1-carbonyl)-1-(prop-1-en-2-yl)-icosahydro-1H-cyclopenta[a]chrysen-9-yl)oxy)carbonyl)cyclopropane-1-carboxylic acid]
IC50 [1]: 1000 nM

C=C(C)[C@@H]1CC[C@]2(C(=O)N3C[C@H](OC(C)C)C[C@H]3c3nc(-c4ccccc4)c[nH]3)CC[C@]3(C)[C@H](CC[C@@H]4[C@@]5(C)CC[C@H](OC(=O)[C@H]6C[C@@H](C(=O)O)C6(C)C)C(C)(C)[C@@H]5CC[C@]43C)[C@@H]12 [Compound 30, (1R,3S)-3-((((1R,3aS,5aR,5bR,7aR,9S,11aR,11bR,13aR,13bR)-3a-((2S,4R)-4-isopropoxy-2-(4-phenyl-1H-imidazol-2-yl)pyrrolidine-1-carbonyl)-5a,5b,8,8,11a-pentamethyl-1-(prop-1-en-2-yl)icosahydro-1H-cyclopenta[a]chrysen-9-yl)oxy)carbonyl)-2,2-dimethylcyclobutane-1-carboxylic acid]
inhibition at 0.1 µM [1]: 61% | inhibition at 1 µM [1]: 99% | IC50 [1]: 89.6 nM

C=C(C)[C@@H]1CC[C@]2(C(=O)N3C[C@H](OCCOC)C[C@H]3c3nc(-c4cccc(F)c4)c[nH]3)CC[C@]3(C)[C@H](CC[C@@H]4[C@@]5(C)CC[C@H](OC(=O)CC(C)(C)C(=O)O)C(C)(C)[C@@H]5CC[C@]43C)[C@@H]12 [Compound 44, 4-(((1R,3aS,5aR,5bR,7aR,9S,11aR,1bR,13aR,13bR)-3a-((2S,4R)-2-(4-(3-fluorophenyl)-1H-imidazol-2-yl)-4-(2-methoxyethoxy)pyrrolidine-1-carbonyl)-5a,5b,8,8,11a-pentamethyl-1-(prop-1-en-2-yl)icosahydro-1H-cyclopenta[a]chrysen-9-yl)oxy)-2,2-dimethyl-4-oxo butanoic acid]
IC50 [1]: 27.6 nM

CC1([C@@H]2CC[C@]3(C(=O)N4CCC[C@H]4c4nc5ccccc5[nH]4)CC[C@]4(C)[C@H](CC[C@@H]5[C@@]6(C)CC[C@H](OC(=O)[C@H]7C[C@@H](C(=O)O)C7(C)C)C(C)(C)[C@@H]6CC[C@]54C)[C@@H]23)CC1 [Compound 61, (1R,3S)-3-((((1R,3aS,5aR,5bR,7aR,9S,11aR,11bR,13aR,13bR)-3a-((S)-2-(1H-benzo[d]imidazol-2-yl)pyrrolidine-1-carbonyl)-5a,5b,8,8,11a-pentamethyl-1-(1-methylcyclopropyl)icosahydro-1H-cyclopenta[a]chrysen-9-yl)oxy)carbonyl)-2,2-dimethylcyclobutane-1-carboxylic acid]
inhibition at 0.1 µM [1]: 100% | inhibition at 1 µM [1]: 100% | IC50 [1]: 56.9 nM
